Results from patent US7341715B2, “Method and agents on the basis of 2-mercaptopropionic acid amides for durable hair forming and a method for producing same” (Wella AG, priority 2000, dated 2008).

Assays:
[1] = Comparison of the stabilities of the waves: wave stability (WSN); details: waving solution 87 mmoles/100 g reducing agent, standardized to glycerin monothioglycolate solution pH 9 = 100%; for WSN pH = 7: pH 7, 20 minutes at 50° C.; for WSN pH = 8: pH 8, 20 minutes at 50° C.; for WSN pH = 9: pH 9, 20 minutes at 50° C.
Method: The waving effectiveness of the 1-mercaptopropionamides was determined using glycerin monothioglycolate as comparison substance with the help of waving solutions at a pH of 7, 8 and 9. For this purpose, pre-bleached and therefore damaged counting hair strands (consisting of about 100 hairs) from Middle European hair was wound wet onto standardized spiral curlers (internal diameter of 3 millimeters) and, after being conditioned in an air-conditioned room (temperature: 20° C., relative humidity: 65%), treated with a solution of the reducing agent, containing 87 mmoles/100 g and adjusted to the respective pH. The amount of waving liquid applied was calculated from the ratio of 1:1.2 (1 g of hair: 1.2 mL of waving liquid). A period of action of 20 minutes at a temperature of 50° C. was selected. Subsequently, the hair was fixed with a peroxide-containing material, removed from the curlers and hung up for 4 hours in water (waterbath temperature: 40° C.).
The wave stability (WSN) is calculated from the following formula:
[formula] • 1o=total length of the not shaped, stretched strands (16.5 cm) • 1t=length of the strands, removed from the curlers and suspended, after 240 minutes • 1l=length of the shaped strands on curlers (for curlers with an internal diameter of 3 mm, 1l=35 mm)
As a standard, strands were treated with a glycerin monothioglycolate solution, the pH of which had been adjusted to a value of 9. The standardized wave stabilities, given below in Table 1, relate to this standard solution (pH=9), the wave stability (WSN) of which has been set at 100%.

pKa value = format: physicochemical

In the case of Thiolactic acid [reference compound], the “WSN pH = 7” value [1] is reported as 57%, the “WSN pH = 8” value [1] is reported as 50% and the “WSN pH = 9” value [1] is reported as 70%.
In the case of CCCN(CCO)C(=O)C(C)S (stereo not shown) [N-Propyl,N-(2-hydroxyethyl)-2-mercaptopropionamide], the melting point is reported as 80 °C, the “WSN pH = 7” value [1] is reported as 77% and the “WSN pH = 8” value [1] is reported as 89%. The “WSN pH = 9” value [1] was 99%.
With COCC(C)NC(=O)C(C)S (stereo not shown) [N-(1-Methoxy-2-propyl)-2-mercaptopropionamide] the melting point was 60 °C, the “WSN pH = 7” value [1] was 91% and the “WSN pH = 8” value [1] was 95%. The “WSN pH = 9” value [1] was 99%.
For CC(S)C(=O)NCC1CCCO1 (stereo not shown) [N-Tetrahydrofurfuryl-2-mercaptopropionamide], the melting point was 82 °C, the “WSN pH = 7” value [1] was 85% and the “WSN pH = 8” value [1] was 88%. For the same compound, the “WSN pH = 9” value [1] was 94%.
In the case of CCN(CC)CCNC(=O)C(C)S (stereo not shown) [N-(2-Diethylaminoethyl)-2-mercaptopropionamide], the melting point is reported as 74 °C, the “WSN pH = 7” value [1] is reported as 71% and the “WSN pH = 8” value [1] is reported as 80%. For the same compound, the “WSN pH = 9” value [1] was 77%.
For CCN(CCO)C(=O)C(C)S (stereo not shown) [N-Ethyl,N-(2-hydroxyethyl)-2-mercaptopropionamide], the melting point was 95 °C, the “WSN pH = 7” value [1] was 94% and the “WSN pH = 8” value [1] was 83%. For the same compound, the “WSN pH = 9” value [1] was 114%.
In the case of COCCNC(=O)C(C)S (stereo not shown) [N-(2-Methoxyethy)-2-mercaptopropionamide], the “WSN pH = 7” value [1] is reported as 87%, the “WSN pH = 8” value [1] is reported as 99% and the “WSN pH = 9” value [1] is reported as 106%.
With CC(S)C(=O)N1CCN(C)CC1 (stereo not shown) [N,N-(4-Methylaza-pentamethylene)-2-mercaptopropionamide] the “WSN pH = 7” value [1] was 78%, the “WSN pH = 8” value [1] was 86% and the “WSN pH = 9” value [1] was 78%.
With COCCN(CCOC)C(=O)C(C)S (stereo not shown) [N,N-Bis-(2-methoxyethyl)-2-mercaptopropionamide] the melting point was 85 °C, the “WSN pH = 7” value [1] was 78% and the “WSN pH = 8” value [1] was 93%. The “WSN pH = 9” value [1] was 91%.
For CCN(CC)CCCNC(=O)C(C)S (stereo not shown) [N-(3-Diethylaminopropyl)-2-mercaptopropionamide], the melting point was 65 °C, the “WSN pH = 7” value [1] was 77% and the “WSN pH = 8” value [1] was 73%. For the same compound, the “WSN pH = 9” value [1] was 81%.
With CC(S)C(=O)N(CCO)C(C)C (stereo not shown) [N-Isopropyl,N-(2-hydroxyethyl)-2-mercaptopropionamide] the melting point was 100 °C, the “WSN pH = 7” value [1] was 65% and the “WSN pH = 8” value [1] was 88%. For the same compound, the “WSN pH = 9” value [1] was 109%.
For CC(S)C(=O)NCCCN (stereo not shown) [N-(3-Aminopropyl)-2-mercaptopropionamide], the “WSN pH = 7” value [1] was 67%, the “WSN pH = 8” value [1] was 82% and the “WSN pH = 9” value [1] was 88%.
In the case of CCNCCNC(=O)C(C)S (stereo not shown) [N-(2-Ethylaminoethyl)-2-mercaptopropionamide], the “WSN pH = 7” value [1] is reported as 57%, the “WSN pH = 8” value [1] is reported as 82% and the “WSN pH = 9” value [1] is reported as 60%.
With CC(S)C(=O)NCCN (stereo not shown) [N-(2-Aminoethyl)-2-mercaptopropionamide] the “WSN pH = 7” value [1] was 61%, the “WSN pH = 8” value [1] was 81% and the “WSN pH = 9” value [1] was 87%.
With CC(S)C(=O)NCCN(C)C (stereo not shown) [N-(2-Dimethylaminoethyl)-2-mercaptopropionamide] the melting point was 83 °C, the “WSN pH = 7” value [1] was 81% and the “WSN pH = 8” value [1] was 87%. For the same compound, the “WSN pH = 9” value [1] was 83%.
With CCC(O)CNC(=O)C(C)S (stereo not shown) [N-(2-Hydroxy-1-butyl)-2-mercaptopropionamide] the “WSN pH = 7” value [1] was 79%, the “WSN pH = 8” value [1] was 91% and the “WSN pH = 9” value [1] was 94%.
For CC(S)C(=O)N1CCCC(O)C1 (stereo not shown), the “WSN pH = 7” value [1] was 79%, the “WSN pH = 8” value [1] was 94% and the “WSN pH = 9” value [1] was 89%.
In the case of CC(S)C(=O)N(C)CCO (stereo not shown) [N-Methyl,N-(2-hydroxyethyl)-2-mercaptopropionamide], the melting point is reported as 95 °C, the “WSN pH = 7” value [1] is reported as 72% and the “WSN pH = 8” value [1] is reported as 91%. For the same compound, the “WSN pH = 9” value [1] was 91%.
In the case of COCCCNC(=O)C(C)S (stereo not shown) [N-(3-Methoxypropyl)-2-mercaptopropionamide], the melting point is reported as 97 °C, the “WSN pH = 7” value [1] is reported as 79% and the “WSN pH = 8” value [1] is reported as 92%. The “WSN pH = 9” value [1] was 91%.
In the case of CNCCCNC(=O)C(C)S (stereo not shown) [N-(3-Methylaminopropyl)-2-mercaptopropionamide], the “WSN pH = 7” value [1] is reported as 55%, the “WSN pH = 8” value [1] is reported as 73% and the “WSN pH = 9” value [1] is reported as 78%.
With CC(S)C(=O)NCCCN(C)C (stereo not shown) [N-(3-Dimethylaminopropyl)-2-mercaptopropionamide] the melting point was 84 °C, the “WSN pH = 7” value [1] was 72% and the “WSN pH = 8” value [1] was 83%. The “WSN pH = 9” value [1] was 95%.
For CC(S)C(=O)NCCO (stereo not shown) [N-(2-Hydroxyethyl)-2-mercaptopropionamide], the “WSN pH = 7” value [1] was 84%, the “WSN pH = 8” value [1] was 106% and the “WSN pH = 9” value [1] was 103%.
In the case of CC(O)CNC(=O)C(C)S (stereo not shown) [N-(2-Hydroxypropyl)-2-mercaptopropionamide], the pKa (pKa value) is reported as 8.37, the “WSN pH = 7” value [1] is reported as 78% and the “WSN pH = 8” value [1] is reported as 94%. The “WSN pH = 9” value [1] was 94%.
In the case of CCC(CO)NC(=O)C(C)S (stereo not shown) [N-(1-Hydroxymethylpropyl)-2-mercaptopropionamide], the “WSN pH = 7” value [1] is reported as 73%, the “WSN pH = 8” value [1] is reported as 88% and the “WSN pH = 9” value [1] is reported as 85%.
For CC(S)C(=O)NCCN1CCOCC1 (stereo not shown) [N-(2-Morpholinoethyl)-2-mercaptopropionamide], the “WSN pH = 7” value [1] was 85%, the “WSN pH = 8” value [1] was 93% and the “WSN pH = 9” value [1] was 92%.
